Data taken from ChEMBL document CHEMBL6182880, “TCM theory-inspired discovery of DNJ-flavonoid conjugates as broad-spectrum anti-SARS-CoV-2 agents by primarily targeting ER-associated glycoprotein folding process” (Eur J Med Chem, 2025).

What was measured:
Assay type in all cases: functional, organism-based; call rule not given here
SARS-CoV-2 [1] = assay: Antiviral activity against SARS CoV-2 pseudovirus transfected in HEK293 cells harboring pLenti-GFP-Luc assessed as inhibition of viral entry into HeLa-ACE2 cells treated 1 to 6 hrs post-infection and measured after 48 hrs by luciferase assay; settings: Severe acute respiratory syndrome coronavirus 2
SARS-CoV-2 [2] = assay: Antiviral activity against SARS CoV-2 pseudovirus transfected in HEK293 cells harboring pLenti-GFP-Luc assessed as inhibition of viral packing process treated from 12 to 48 hrs post-transfection by luciferase assay; settings: Severe acute respiratory syndrome coronavirus 2, HeLa-ACE2
SARS-CoV-2 [3] = assay: Antiviral activity against SARS CoV-2 pseudovirus transfected in HEK293 cells harboring pLenti-GFP-Luc assessed as inhibition of viral entry into HeLa-ACE2 cells incubated with cells for 1 to 2 hrs prior to viral infection and measured after 48 hrs by luciferase assay; settings: Severe acute respiratory syndrome coronavirus 2, HeLa-ACE2
SARS-CoV-2 [4] = assay: Antiviral activity against SARS CoV-2 pseudovirus transfected in HEK293 cells harboring pLenti-GFP-Luc assessed as inhibition of viral packing process by luciferase assay; settings: Severe acute respiratory syndrome coronavirus 2; HeLa-ACE2; time 48.0 hrs
SARS-CoV-2 [5] = assay: Antiviral activity against SARS CoV-2 pseudovirus transfected in HEK293 cells harboring pLenti-GFP-Luc assessed as inhibition of viral entry into HeLa-ACE2 cells treated for 12 hrs prior to media replacement and measured after 48 hrs by luciferase assay; settings: Severe acute respiratory syndrome coronavirus 2, HeLa-ACE2

O=c1cc(-c2ccc(O)c(O)c2)oc2cc(O)cc(OCCCCCCCCCCN3C[C@H](O)[C@@H](O)[C@H](O)[C@H]3CO)c12
inhibition (SARS-CoV-2 [1]): Not active; Delay Of Time Of Addition Exerted A Time-Dependent Decrease In Viral Entry Inhibition
EC50 (SARS-CoV-2 [2]): 7.52 µM
EC50 (SARS-CoV-2 [3]): 7.52 µM
inhibition (SARS-CoV-2 [4]): Time-dependent-effect
EC50 (SARS-CoV-2 [5]): 5.13 µM
